Data on four molecules can be found in US11931444B2, “Topical composition” (DSM IP Assets B.V., priority 2018, dated 2024).

Data set [1] can be described thus: Polarity index (interfacial tension of the oil with respect to water). In kind it is physicochemical. Particulars: for polarity index: Table 1, printed under the ingredient name; for polarity index mN/m: Table 2. The source says:
The term “polarity index” is a parameter which is known to the person skilled in the art. The polarity of an oil is defined as the polarity index (interfacial tension) of the oil with respect to water. The interfacial tension, i. e. the polarity index, can be particularly determined using a ring tensiometer (e.g., Krüss K 10), which measures the interfacial tension in mN/m in analogy to the ASTM method D971-99a (2004).

Data set [2] in a line: Particle size by laser diffraction (Malvern Mastersizer 2000) and/or Coulter Delsa Nano S. The data set is classed as physicochemical. An excerpt: The term ‘mean particle size’ as used herein refers to the mean number-based particle size distribution Dn50 (also known as Dn0.5) as determined by laser diffraction e.g. with a Malvern Mastersizer 2000 (ISO 13320:2009).
All particles sizes have been determined by laser diffraction with a Malvern Mastersizer 2000 according to the method as outlined in ISO 13320:2009 and/or a Coulter Delsa Nano S (dynamic laser scattering).

As for `CC(C)OC(=O)CCCCC(=O)OC(C)C` [Diiso propyl adipate, Diisopropyl Adipate], in data set [1], the polarity index is 11.6 mN/m) and the “polarity index mN/m” value is given as 11.6 mN/m.
As to `c1ccc2oc(-c3ccc(-c4nc5ccccc5o4)cc3)nc2c1` [DBO-400 (A), 1,4-di(benzoxazol-2′-yl)benzene], the “Particle size Dn50” value in data set [2] stood at 380 nm.
For the molecule Isocetyl Stearate, the “polarity index mN/m” value in data set [1] is 36.2 mN/m.
As to `CCCCCCCCCCCCCC(C)C` [Isohexadecane], in data set [1], the polarity index entry is given as “(polarity index 43.8 mN/m)” and the “polarity index mN/m” value was determined as 43.8 mN/m.
